Usually IC50 stands for the concentration that inhibits the measured activity by half.

Drawing on ChEMBL document CHEMBL1156800, “Probing Torpedo californica acetylcholinesterase catalytic gorge with two novel bis-functional galanthamine derivatives” (J Med Chem, 2010), this text covers IC50 for one compound.

This experiment concerns the target Acetylcholinesterase (Homo sapiens, UniProt P22303). Description: Inhibition of human recombinant AChE.

Chain of Acetylcholinesterase (P22303 whole entry): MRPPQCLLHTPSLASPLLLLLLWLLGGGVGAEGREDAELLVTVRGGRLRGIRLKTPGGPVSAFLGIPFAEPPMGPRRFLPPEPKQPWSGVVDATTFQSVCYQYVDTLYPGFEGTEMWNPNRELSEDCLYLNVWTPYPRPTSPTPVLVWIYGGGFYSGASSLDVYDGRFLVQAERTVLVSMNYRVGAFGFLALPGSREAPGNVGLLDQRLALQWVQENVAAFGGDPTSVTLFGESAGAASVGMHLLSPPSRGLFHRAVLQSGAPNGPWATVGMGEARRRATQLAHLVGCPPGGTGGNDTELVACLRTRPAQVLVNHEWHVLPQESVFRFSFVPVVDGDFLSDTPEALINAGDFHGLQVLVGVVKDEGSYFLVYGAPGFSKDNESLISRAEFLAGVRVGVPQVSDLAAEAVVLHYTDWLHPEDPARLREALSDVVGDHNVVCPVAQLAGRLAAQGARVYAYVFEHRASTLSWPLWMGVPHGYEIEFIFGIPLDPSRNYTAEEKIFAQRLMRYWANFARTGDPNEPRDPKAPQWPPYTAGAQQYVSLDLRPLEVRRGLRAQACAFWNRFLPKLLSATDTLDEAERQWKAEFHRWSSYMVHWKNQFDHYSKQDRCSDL

As for `COc1ccc2c3c1O[C@H]1C[C@@H](O)C=C[C@@]31CCN(CCCCCCCCN1C(=O)c3ccccc3S1(=O)=O)C2`, the half-maximal inhibitory concentration (IC50) came to 50 nM.
